Test results from PMC10191403, “The C-terminal 32-mer fragment of hemoglobin alpha is an amyloidogenic peptide with antimicrobial properties” (Cellular and Molecular Life Sciences: CMLS, 2023).
Ends that are not written are not given here.

Assays:
[1] = system: THP-1-derived macrophages; test: Phagocytosis of E. coli-GFP by THP-1-derived macrophages; type: cell-based, human; conditions: E. coli-GFP pre-incubated with 1 mg/ml fibrils, 3 h on cells; CytD 2 µg/ml pre-treatment 30 min; confocal microscopy
[2] = Thioflavin T (ThT) assay of fibril formation; type: physicochemical; conditions: formation of ThT positive aggregates
[3] = system: HSV-2; type: cell-based; conditions: serial dilutions of peptides added to ELVIS cells, infected 1 h later with HSV-2; lacZ enzyme activity one day post-infection; ±SD; one (inactive) to three (active) experiments in triplicates

Compound | uptake of E. coli-GFP by macrophages [1] | ThT signal (+/-) [2] | IC50 (antiviral activity, HSV-2) [3] [µg/mL]
C=C1[C@@H](C)[C@H]2[C@H](Cc3ccccc3)NC(=O)[C@]23[C@H](OC(C)=O)/C=C/[C@@](C)(O)C(=O)[C@@H](C)C/C=C/[C@H]3[C@@H]1O [CytD, Cytochalasin D] | prevented the uptake of any bacteria |  | 
AAHLPAEFTPAVHASLDKFLA [HBA(111–131)] |  | - | > 130
ASVSTVL [HBA 131-137] |  | + | > 130
KFLASVST [HBA 128-135] |  | - | > 130
LASVSTVL [HBA 130-137] |  | + | > 130
SVSTVL [HBA 132-137] |  | - | > 130
SVSTVLTSKYR [HBA 132-142] |  | - | > 130
